Measured values as given in patent US5877154A, “Pharmaceutical compositions for the treatment or prevention of disorders in the eye” (Ramot University Authority for Applied Research and …, priority 1992, dated 1999).

Experiments:
[1] = tested on: leukotriene B4 (LTB4) production in the corneas; test: LTB4 production in corneas of rats exposed to UV irradiation; assay type: in vivo, albino rats; conditions: dexamethasone 4 mg/kg per day, melanotropin 10 μg/kg per day, irradiated untreated 2.47±0.8
Description: The antinflammatory activity of melanotropin in the eye was measured by the ability of the melanotropin to inhibit the production of the leukotriene (LTB4) which is produced during the inflammatory response elicited by noxious stimulae to the cornea.
The ability of melanotropin to inhibit an inflammatory response was determined in corneas of albino rats subjected to UV irradiation. The parameter used to measure the inflammatory response was the amount of production of leukotriene B4--known for its modulatory action in inflammation.
One eye of albino rats of either sex weighing 200-250 gm was exposed to UV irradiation (200-400 nm) for 15 min. daily for 4 consecutive days. The other contralateral eye of each rat was not exposed to the irradiation and served as a control. […]
In the treated group of animals, the specific treatment began each day within one hour after the UV exposure. […] At the end of the incubation, a sample was obtained from the medium and the contents of the leukotrien B4 (LTB4) was determined by a radioimmunoassay (RIA) technique using a New England Nuclear Kit with a specific antibody against LTB4.

[2] = tested on: prostaglandin type E2 (PGE2) production; test: PGE2 production in eyes of rats exposed to UV irradiation; assay type: in vivo, albino rats; conditions: dexamethasone 4 mg/kg per day, melanotropin 10 μg per day
Description: One eye of albino rats of either sex weighing 200-250 gm was exposed to UV irradiation (200-400 nm) for 15 min. daily for 4 consecutive days. The other contralateral eye of each rat was not exposed to the irradiation and served as a control.
The animals were divided into three groups (8 rats in each group) as follows: (1) untreated; (2) rabbits exposed to UV irradiation and a daily intermuscular (i.m.) injection of 4 mg/kg dexamethasone; and (3) rabbits exposed to UV irradiation and treated with a daily injection (i.m.) of 10 μg/kg of melanotropin.
In the treated group of animals, the specific treatment began each day within one hour after the UV exposure. The animals were sacrificed two days following the last UV irradiation and the eyes were frozen at -70° C. The cornea was disected and incubated in a shaking bath at 37° C. for 40 mins. in a Heppes buffer (pH=7.4). At the end of the incubation, a sample was obtained from the medium and the contents of the leukotrien B4 (LTB4) was determined by a radioimmunoassay (RIA) technique using a New England Nuclear Kit with a specific antibody against LTB4.
The production of prostaglandin type E2 (PGE2) was also measured in the eyes of three groups of rats. The amount of PGE2 in the eyes exposed to UV irradiation was higher than in the nonirradiated control eyes (4.1±1.9 pg/mg weight as compared to 1.8±0.3 pg/mg weight, p=0.001).

[3] = tested on: human skin fibroblast (HSF) cell culture; test: 3H-Thymidine uptake by human skin fibroblast cell culture; assay type: cell-based; conditions: bFGF 9 ng/ml; EGF 10 ng/ml; melanotropin 10^-6 M and 10^-7 M; serum free medium, FIG. 2
Description: HSF cells were grown in DMEM (Dulbeccos Modified Eagles Media) supplemented with 10% heat inactivated fetal calf serum, 2 mM glutamine and antibiotics (100 U/mi penicillin G, 0.25 mg/ml amphotericin B and 0.1 mg/ml streptomycin) (Biological Industries, Beth Haemek, Israel) in 56.7 cm^2 tissue culture flasks (Nunc, Roskilde, Denmark) at 37° C. in a 10% CO2 humidified atmosphere incubator. When the cells reached confluency, they were tripsinized by incubation with 0.083% tripsine (Biological Industries, Beth HaEmek, Israel) for a few minutes at 37° C. and seeded (please complete). The growth medium of the cells with or without drugs was changed twice a week.
The wells were then divided into five groups and a different medium was added to the wells of each group as described in Example 1. The medium added to each of the five groups was: (1) serum free medium containing melanotropin 10^-6 M; (2) serum free medium containing melanotropin 10^-7 M; (3) serum free medium containing EGF 10 ng/ml; (4) serum free medium containing bFGF 9 nn/ml; and (5) serum free medium only.
The degree of ^3 H-Thymidine uptake by human skin fibroblast was determined as described in Example 1.

[4] = tested on: bovine vascular endothilial cells (ABAE); test: 3H-Thymidine uptake by bovine vascular endothelial cells; assay type: cell-based; conditions: bFGF 9 ng/ml; EGF 10 ng/ml; melanotropin 10^-6 M and 10^-7 M; single set of experiments
Description: ABAE cells were grown in DMEM (Dulbeccos Modified Eagles Media) supplemented with 5% heat inactivated fetal calf serum, 5% heat inactivated newborn calf serum, 2 mM glutamine and antibiotics (100 U/ml penicillin G, 0.25 mg/ml amphotericin B and 0.1 mg/ml streptomycin) (all from Biological Industries, Beth HaEmek, Israel) in 56.7 cm^2 tissue culture dishes (Nunc, Roskilde, Denmark) at 37° C. in a humidified atmosphere incubator with 10% CO2.
The cultures were supplemented every other day with 10^-9 ng/ml of bFGF until they reached confluency.
The cells were then trypsinized by adding 0.041% trypsin (Biological Industries, Beth HaEmek, Israel) for a few minutes at 37° C. The cells were then diluted by a factor of six and plated in microwell plates. Growth medium was changed twice a week.
The cells were then divided into five groups as described in Examples 1 and 2 and a different medium was added to the wells of each group as follows: (1) serum free medium containing melanotropin 10^-6 M; (2) serum free medium containing melanotropin 10^-7 M; (3) serum free medium containing EGF 10 ng/ml; (4) serum free medium containing bFGF 9 ng/ml; and (5) serum free medium alone.
The degree of ^3 H-Thymidine uptake by the cells was again determined as described in Examples 1 and 2.

bovine RPE cells = test: wound closure technique: proliferation and migration of RPE cells over denuded area; assay type: cell-based; conditions: bFGF 10^-10 mg/ml
Description: The ability of RPE cells to proliferate and migrate over denuded areas was measured using a slight modification of the previously known technique termed "wound closure technique" (Jumblatt and Neufeld, 1986).
In this example bovine RPE cells were grown as described in Example 1 and plated in microwell plates containing 16 ml wells. When the cultures reached confluency, sloughing of the cells from a centrally located area in each well was carried out using a very sharp blade. In order to remove non adherent cells, each well was rinsed with a 1 ml Earle's balanced salt solution (EBSS: Gibco). The cultures were photographed at the time of the sloughing and at 12, 24 and 48 hours after the sloughing procedure. In this way the size of the denuded area in the culture at the time of the sloughing was documented and could be compared later to the same cultures at different time periods after the denudation.
The ability of the bovine RPE cells to proliferate and migrate over the denuded area in the well was determined by analyzing the covered and uncovered area in the photographs of the cultures taken at different time periods as described in Jumblatt & Neufeld (ibid). The rate of the "wound" closure was calculated as mm^2 per hour or as the percentage of the covered area in the culture wells at a specific time period.
The bovine RPE cell cultures were divided into six groups. […]

Compound	LTB4 produced by the corneas of the UV irradiated eyes [1] [pg/mg weight]	PGE2 produced by UV irradiated corneas compared with irradiated but untreated corneas [2]	3H-Thymidine uptake of human skin fibroblasts as compared to cells treated with medium alone [3]	3H-Thymidine uptake by the bovine vascular endothilium cells [4]	cell covered area in the wells (bovine RPE cells; 12 hours after the wounding) [mm^2]	cell covered area in the culture (bovine RPE cells; 48 hours after addition, p<0.05 vs medium alone) [mm^2]
C[C@@H]1C[C@H]2[C@@H]3CCC4=CC(=O)C=C[C@]4(C)[C@@]3(F)[C@@H](O)C[C@]2(C)[C@@]1(O)C(=O)CO [dextamethasone, dexamethasone]	9.38±2.4	lower than the amount of the PGE2 in the irradiated but untreated rats' corneas				
bFGF: basic fibroblast growth factor, comparison growth factor			five-fold increase	significant induction	11.4±1.1	21.1±0.7
EGF: Epidermal growth factor, comparison growth factor			did not cause any increase	significant induction		
